The text below walks through data of publication PMC6016456, “Human DHEA sulfation requires direct interaction between PAPS synthase 2 and DHEA sulfotransferase SULT2A1” (The Journal of Biological Chemistry, 2018).

The assay deals with T1, SULT2A1 (Homo sapiens, UniProt Q06520).
T1 construct: expressed from a SULT2A1 vector in HEK293 cells, co-expressed with PAPS synthase EGFP fusions
T1 sequence (Q06520 1-285): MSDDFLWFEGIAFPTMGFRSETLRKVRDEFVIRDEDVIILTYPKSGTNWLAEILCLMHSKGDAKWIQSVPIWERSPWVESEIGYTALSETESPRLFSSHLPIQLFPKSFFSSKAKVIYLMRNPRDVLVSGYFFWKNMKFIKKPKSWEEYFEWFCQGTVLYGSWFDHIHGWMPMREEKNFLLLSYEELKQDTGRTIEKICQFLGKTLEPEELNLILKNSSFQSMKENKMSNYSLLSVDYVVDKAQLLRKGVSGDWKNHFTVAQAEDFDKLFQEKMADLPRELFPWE
Put plainly: DHEA sulfation assay in transfected HEK293 cells. Format: cell-based. The settings on record: co-expressed PAPS synthase supplies PAPS.

With `C[C@]12CC[C@H](O)CC1=CC[C@@H]1[C@@H]2CC[C@]2(C)C(=O)CC[C@@H]12` [DHEA], the conversion rate result is given as “co-express PAPS synthase protein variants with cytoplasmic SULT2A1”.
